biological target: H1047R PIK3CA enzyme (Homo sapiens, UniProt P42336, H1047R); experiment: ADP-Glo Biochemical PIK3CA Kinase Assay
Sequence (P42336 whole entry H1047R): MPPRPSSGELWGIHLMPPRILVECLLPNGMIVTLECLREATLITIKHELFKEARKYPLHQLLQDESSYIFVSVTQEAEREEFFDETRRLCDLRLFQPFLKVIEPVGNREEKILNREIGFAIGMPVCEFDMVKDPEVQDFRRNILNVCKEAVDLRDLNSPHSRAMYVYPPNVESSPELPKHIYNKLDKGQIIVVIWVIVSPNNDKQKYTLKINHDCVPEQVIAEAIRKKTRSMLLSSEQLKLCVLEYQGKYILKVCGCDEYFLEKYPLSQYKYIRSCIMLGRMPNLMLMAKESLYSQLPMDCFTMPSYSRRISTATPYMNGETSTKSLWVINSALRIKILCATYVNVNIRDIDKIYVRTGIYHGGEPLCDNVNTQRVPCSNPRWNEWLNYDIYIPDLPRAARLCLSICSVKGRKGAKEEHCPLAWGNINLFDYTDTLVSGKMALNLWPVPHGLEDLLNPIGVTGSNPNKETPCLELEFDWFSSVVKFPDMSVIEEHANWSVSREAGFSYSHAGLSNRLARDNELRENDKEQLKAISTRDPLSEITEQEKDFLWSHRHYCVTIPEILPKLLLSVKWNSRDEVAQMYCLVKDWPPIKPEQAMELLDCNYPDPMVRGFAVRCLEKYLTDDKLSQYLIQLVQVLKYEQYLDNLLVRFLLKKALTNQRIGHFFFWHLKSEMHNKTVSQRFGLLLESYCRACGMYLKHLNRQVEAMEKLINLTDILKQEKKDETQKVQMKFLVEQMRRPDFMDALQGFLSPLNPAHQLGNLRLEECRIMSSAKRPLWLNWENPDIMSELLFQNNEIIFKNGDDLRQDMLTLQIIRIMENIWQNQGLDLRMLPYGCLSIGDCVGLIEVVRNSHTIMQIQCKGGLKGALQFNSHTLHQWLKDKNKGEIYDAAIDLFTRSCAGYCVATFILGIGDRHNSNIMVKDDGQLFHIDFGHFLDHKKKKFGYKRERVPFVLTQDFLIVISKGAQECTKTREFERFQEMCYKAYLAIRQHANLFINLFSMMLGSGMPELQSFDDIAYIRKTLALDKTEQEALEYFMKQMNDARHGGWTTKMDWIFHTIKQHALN
Sequence (P27986 whole entry partner): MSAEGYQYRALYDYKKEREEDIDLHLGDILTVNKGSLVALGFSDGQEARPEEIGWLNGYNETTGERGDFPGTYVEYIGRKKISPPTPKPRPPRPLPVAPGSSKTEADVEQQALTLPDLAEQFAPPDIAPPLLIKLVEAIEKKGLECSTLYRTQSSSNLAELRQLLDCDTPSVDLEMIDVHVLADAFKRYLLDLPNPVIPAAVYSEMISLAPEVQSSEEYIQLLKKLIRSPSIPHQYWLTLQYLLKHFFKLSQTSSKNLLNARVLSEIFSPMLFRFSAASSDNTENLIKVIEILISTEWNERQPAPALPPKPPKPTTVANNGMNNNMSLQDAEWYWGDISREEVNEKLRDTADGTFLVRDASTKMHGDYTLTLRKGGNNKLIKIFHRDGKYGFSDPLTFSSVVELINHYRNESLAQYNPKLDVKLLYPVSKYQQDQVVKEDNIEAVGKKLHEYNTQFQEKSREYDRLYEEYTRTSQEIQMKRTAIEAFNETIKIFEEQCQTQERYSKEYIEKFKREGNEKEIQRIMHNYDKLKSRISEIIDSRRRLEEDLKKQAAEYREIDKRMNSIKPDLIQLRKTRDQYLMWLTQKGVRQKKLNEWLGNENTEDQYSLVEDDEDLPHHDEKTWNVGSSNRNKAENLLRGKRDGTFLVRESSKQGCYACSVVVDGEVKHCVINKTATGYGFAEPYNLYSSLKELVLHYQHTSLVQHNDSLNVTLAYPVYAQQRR

SMILES | IC50
Cc1ncc(-c2cc(NC(=O)c3cc(F)cc(C(F)(F)F)c3)c3c(c2)C(=O)NC3c2cc(F)ccc2Cl)c(C)n1 (stereo not shown) [Compound I-1092] | 0.1 to 0.5 µM
O=C1N[C@@H](c2cc(F)ccc2Cl)c2c(NC(=O)[C@H]3C[C@H](O)C[C@@H](C(F)(F)F)C3)cc(Br)cc21 (single isomer, unassigned) [Compound I-2179] | 0.5 to 1 µM
N#Cc1cc(-c2cc(NC(=O)c3cc(F)cc(C(F)(F)F)c3)c3c(c2)C(=O)N[C@@H]3c2cc(F)ccc2Cl)cn2ncnc12 [Compound I-1880] | 0.5 to 1 µM
N#Cc1nc2ccc(-c3cc(NC(=O)c4cc(F)cc(C(F)(F)F)c4)c4c(c3)C(=O)NC4c3cc(F)ccc3Cl)cn2n1 (stereo not shown) [Compound I-1707] | ≤ 0.1 µM
O=C(Nc1cc(Br)cc2c1C(c1cc(F)ccc1Cl)NC2=O)NC1(C(F)(F)F)CC1 (stereo not shown) [Compound I-1294] | 1 to 10 µM
Cc1ccccc1C1NC(=O)c2nccc(NC(=O)N3CCc4cccnc43)c21 (stereo not shown) [Compound I-282] | 1 to 10 µM
O=C(Nc1cc(-c2ccc3ncnn3c2)cc2c1[C@@H](c1cc(F)ccc1Cl)NC2=O)c1cc(F)c(F)c(Cl)c1 (stereo in doubt) [Compound I-1174] | 1 to 10 µM
O=C1NC(c2cc(F)ccc2Cl)c2c(NC(=O)N3CCC(O)(C(F)(F)F)C3)cc(-c3ccc4ncnn4c3)cc21 (stereo not shown) [Compound I-1904] | 10 to 100 µM
O=C1N[C@@H](c2cc(F)ccc2Cl)c2c(NC(=O)[C@H]3CCC[C@@H](OC(F)(F)F)C3)cccc21 (single isomer, unassigned) [Compound I-2218] | 10 to 100 µM
O=C1N[C@H](c2cc(F)ccc2Cl)c2c(NC(=O)N3C[C@@](O)(C(F)F)c4cc(F)ccc43)cc(F)cc21 (single isomer, unassigned) [Compound I-2632] | 1 to 10 µM
O=C1N[C@H](c2cc(F)ccc2Cl)c2c(NC(=O)N3C[C@](O)(C(F)F)c4ccccc43)cccc21 (single isomer, unassigned) [Compound I-2486] | 10 to 100 µM
CCn1cc(-c2cc(NC(=O)c3cc(F)cc(C(F)(F)F)c3)c3c(n2)C(=O)N[C@H]3c2cc(F)ccc2Cl)ccc1=O [Compound I-615] | ≤ 0.1 µM
Cc1ccccc1C1NC(=O)c2cc(CC(C)C)cc(NC(=O)c3cc(F)cc(C(F)(F)F)c3)c21 (stereo not shown) [Compound I-268] | ≤ 0.1 µM
COC1CCCC(C(=O)Nc2cc(-c3ccc4ncnn4c3)cc3c2C(c2cc(F)ccc2Cl)NC3=O)C1 (mixture of isomers) [Compound I-2037] | 10 to 100 µM
N#Cc1cn(Cc2cc(NC(=O)c3cc(F)cc(C(F)(F)F)c3)c3c(c2)C(=O)NC3c2cc(F)ccc2Cl)cn1 (stereo not shown) [Compound I-1719] | ≤ 0.1 µM
Cc1ccc(F)cc1[C@H]1NC(=O)c2cc(Br)cc(NC(=O)c3cc(F)cc(C(F)(F)F)c3)c21 [Compound I-757] | 1 to 10 µM
O=C1NC(c2cc(F)ccc2Cl)c2c(NC(=O)N3CCCC(O)C3)cc(-c3ccc4ncnn4c3)cc21 (stereo not shown) [Compound I-1721] | 10 to 100 µM
O=C1N[C@H](c2cc(F)ccc2Cl)c2c(NC(=O)[C@H]3CC(C(F)(F)F)C[C@@H](O)C3)cc(Br)cc21 (single isomer, unassigned) [Compound I-2274] | 10 to 100 µM
O=C(Nc1cc(Cc2ccc3c(c2)CCNC3=O)cc2c1[C@H](c1cc(F)ccc1Cl)NC2=O)c1cc(F)cc(C(F)(F)F)c1 [Compound I-1626] | ≤ 0.1 µM
O=C1N[C@@H](c2cc(F)ccc2Cl)c2c(NC(=O)N3C[C@@](O)(C(F)(F)F)c4cc(F)ccc43)cc(-n3ncccc3=O)cc21 (single isomer, unassigned) [Compound I-2534] | 0.5 to 1 µM
N#Cc1cnn(Cc2cc(NC(=O)N3C[C@@](O)(C(F)(F)F)c4cc(F)ccc43)c3c(c2)C(=O)N[C@H]3c2cc(F)ccc2Cl)c1 (single isomer, unassigned) [Compound I-2672] | 10 to 100 µM

SMILES | IC50
O=C(Nc1cccc2c1[C@H](CC1CCCCC1)NC2=O)c1cc(F)cc(C(F)(F)F)c1 [Compound I-2058] | 0.5 to 1 µM
O=C1N[C@@H](c2cc(F)ccc2Cl)c2c(NC(=O)N3C[C@](O)(C(F)(F)F)c4cc(F)ccc43)cc(Cl)cc21 (single isomer, unassigned) [Compound I-2511] | 0.1 to 0.5 µM
O=C1N[C@@H](c2ccccc2Cl)c2c(NC(=O)N3C[C@](O)(C(F)(F)F)c4cc(F)ccc43)cccc21 (single isomer, unassigned) [Compound I-2686] | 10 to 100 µM
Cc1ccccc1C1NC(=O)c2c(C)ccc(NC(=O)c3csc4ccccc34)c21 (stereo not shown) [Compound I-153, N-(7-Methyl-1-oxo-3-(o-tolyl)isoindolin-4-yl)benzo[b]thiophene-3-carboxamide] | 0.1 to 0.5 µM
O=C(Nc1cc(N2CC(F)(F)C2)nc2c1[C@@H](c1cc(F)ccc1Cl)NC2=O)c1cc(F)cc(C(F)(F)F)c1 [Compound I-367] | 1 to 10 µM
O=C1NC(c2cc(F)ccc2Cl)c2c(NS(=O)(=O)N3CCc4ccccc43)cc(Br)cc21 (stereo not shown) [Compound I-1287] | 10 to 100 µM
Cc1cn(-c2cc(NC(=O)N3C[C@](O)(C(F)(F)F)c4cc(F)ccc43)c3c(c2)C(=O)N[C@H]3c2cc(F)ccc2Cl)cn1 (single isomer, unassigned) [Compound I-2639] | 10 to 100 µM
O=C(CCC(F)(F)F)Nc1cccc2c1[C@@H](c1cc(F)ccc1Cl)NC2=O [Compound I-2119] | 10 to 100 µM
O=C(Nc1cccc2c1C(c1cc(F)ccc1C(F)F)NC2=O)c1cc(F)cc(C(F)(F)F)c1 (stereo not shown) [Compound I-138] | ≤ 0.1 µM
N#Cc1cc(NC(=O)N2C[C@@](O)(C(F)(F)F)c3cc(F)ccc32)c2c(c1)C(=O)N[C@H]2c1cc(F)ccc1Cl (single isomer, unassigned) [Compound I-2559] | 1 to 10 µM
O=C(Nc1cccc2c1C(CC1CCCCC1)NC2=O)c1cc(F)cc(C(F)(F)F)c1 (stereo not shown) [Compound I-1732] | 1 to 10 µM
O=C1N[C@@H](c2cc(F)ccc2Cl)c2c(N[C@H]3CCOc4ccccc43)cc(-c3cnn(C(F)F)c3)nc21 (single isomer, unassigned) [Compound I-2160] | 10 to 100 µM
O=C(Nc1cc(CN2CC(F)(F)C2)cc2c1C(c1cc(F)ccc1Cl)NC2=O)c1cc(F)cc(C(F)(F)F)c1 (stereo not shown) [Compound I-348, N-(3-(2-Chloro-5-fluorophenyl)-6-((3,3-difluoroazetidin-1-yl)methyl)-1-oxoisoindolin-4-yl)-3-fluoro-5-(trifluoromethyl)benzamide] | ≤ 0.1 µM
CC(O)(CC#N)c1cc(NC(=O)c2cc(F)cc(C(F)(F)F)c2)c2c(c1)C(=O)NC2c1cc(F)ccc1Cl (stereo not shown) [Compound I-1211] | ≤ 0.1 µM
CC12CC3CC(C)(C1)CC(C(=O)Nc1cccc4c1C(c1cc(F)ccc1Cl)NC4=O)(C3)C2 (stereo not shown) [Compound I-1074] | 0.1 to 0.5 µM
Cc1ccc(C(=O)Nc2cc(Br)cc3c2C(c2cc(F)ccc2Cl)NC3=O)cc1C(F)(F)F (stereo not shown) [Compound I-875] | 0.1 to 0.5 µM
N#CC1(C(=O)Nc2cc(-c3ccc4ncnn4c3)cc3c2C(c2cc(F)ccc2Cl)NC3=O)CCCC1 (stereo not shown) [Compound I-1899] | 10 to 100 µM
O=C1NC(c2cc(F)ccc2Cl)c2c(NCC3CCCCC3)cc(Br)cc21 (stereo not shown) [Compound I-1726] | 10 to 100 µM
Nc1cc(NC(=O)c2cc(F)cc(C(F)(F)F)c2)cc2c1C(c1cc(F)ccc1C(F)F)NC2=O (stereo not shown) [Compound I-269] | 10 to 100 µM
Cc1ccccc1C1NC(=O)c2cccc(NC(=O)c3csc4ccncc34)c21 (stereo not shown) [Compound I-74] | 1 to 10 µM
O=C(Nc1cc(-c2ccn3ccnc3c2)cc2c1[C@H](c1cc(F)ccc1Cl)NC2=O)c1cc(F)cc(C(F)(F)F)c1 [Compound I-1450] | ≤ 0.1 µM

SMILES | IC50
O=C(Nc1cc(-c2ccc3ncnn3c2)cc2c1[C@H](c1cc(F)ccc1Cl)NC2=O)c1cc(F)c(F)c(Cl)c1 (stereo in doubt) [Compound I-1173] | ≤ 0.1 µM
O=C(Nc1cc(OCC2CCO2)cc2c1C(c1cc(F)ccc1Cl)NC2=O)c1cc(F)cc(C(F)(F)F)c1 (racemic) [Compound I-1366] | ≤ 0.1 µM
Cc1ccccc1C1NC(=O)c2cc(CO)cc(NC(=O)c3cc(F)cc(C(F)(F)F)c3)c21 (stereo not shown) [Compound I-473] | ≤ 0.1 µM
O=C1N[C@@H](c2cc(F)ccc2Cl)c2c(NC(=O)N3CCOCC(F)(F)C3)cc(Br)cc21 (single isomer, unassigned) [Compound I-2242] | 10 to 100 µM
CC(=O)Nc1cc(NC(=O)N2C[C@@](O)(C(F)(F)F)c3cc(F)ccc32)c2c(c1)C(=O)N[C@@H]2c1cc(F)ccc1Cl (single isomer, unassigned) [Compound I-2575] | 1 to 10 µM
O=C1NC(c2cc(F)ccc2Cl)c2c(C#Cc3ccccc3)cccc21 (stereo not shown) [Compound I-2097] | 10 to 100 µM
Cc1ccccc1C1NC(=O)c2cccc(NC(=O)C3CCc4ccccc43)c21 (stereo not shown) [Compound I-256] | 1 to 10 µM
O=C(Nc1cccc2c1C(c1cc(F)ccc1Br)NC2=O)c1cc(F)cc(C(F)(F)F)c1 (stereo not shown) [Compound I-628] | ≤ 0.1 µM
Cc1ccccc1-n1[nH]c(=O)c2cccc(N)c21 [Compound I-64] | 1 to 10 µM
CC(=O)NCCOc1cc(NC(=O)c2cc(F)cc(C(F)(F)F)c2)c2c(c1)C(=O)NC2c1cc(F)ccc1Cl (racemic) [Compound I-1322] | 0.1 to 0.5 µM
O=C(Nc1cc(Br)cc2c1C(c1cc(F)ccc1Cl)NC2=O)c1ccc(F)c(Cl)c1 (stereo not shown) [Compound I-565] | 0.5 to 1 µM
O=C1NC(c2cc(F)ccc2Cl)c2c(NC(=O)N3CCc4cc(F)ccc43)cc(Br)cc21 (stereo not shown) [Compound I-1270] | ≤ 0.1 µM
NCc1cc(-c2ccc3ncnn3c2)cc2c1C(c1cc(F)ccc1Cl)NC2=O (stereo not shown) [Compound I-1950] | 10 to 100 µM
O=C1NC(c2cc(F)ccc2Cl)c2c(NC(=O)C34CC(C(O)(C5CC5)C5CC5)(C3)C4)cccc21 (stereo not shown) [Compound I-2118] | 10 to 100 µM
O=C(Nc1cc(OCC2(CO)COC2)cc2c1C(c1cc(F)ccc1Cl)NC2=O)c1cc(F)cc(C(F)(F)F)c1 (stereo not shown) [Compound I-1357] | ≤ 0.1 µM
COc1cccc(-c2cc(NC(=O)c3cc(F)cc(C(F)(F)F)c3)c3c(c2)C(=O)N[C@@H]3c2cc(F)ccc2Cl)n1 (stereo in doubt) [Compound I-1007] | 1 to 10 µM
Nc1cc(NC(=O)c2cc(F)cc(C(F)(F)F)c2)c2c(c1)C(=O)NC2c1cccc(F)c1 (stereo not shown) [Compound I-2320] | 0.5 to 1 µM
O=C(Nc1cccc2c1C(c1ccc(C3CC3)cc1Cl)NC2=O)c1cc(F)cc(C(F)(F)F)c1 (stereo not shown) [Compound I-424] | 1 to 10 µM
N#CCn1nccc1-c1cc(NC(=O)c2cc(F)cc(C(F)(F)F)c2)c2c(c1)C(=O)NC2c1cc(F)ccc1Cl (stereo not shown) [Compound I-1303] | ≤ 0.1 µM
